Read-outs that look alike come from different tables or passages of the source.
Assays:
[1] = system: cancer cells; test: Rapid cancer cell death phenotype; type: cell-based; settings: relative to TMZ
From the text: FIG. 8A-C. Rapid Cancer Cell Death Phenotype.

[2] = system: U87 GBM cell line; test: Cell viability assay (Alamar Blue, 7 days), U87; type: cell-based, human; settings: Homo sapiens, 168 h, MGMT (−) MMR (+), 600 c/w, SEM, n=3, read-out: Activity, U87
Procedure: (§1) Cell Culture and Reagents. All cell lines were grown in a 37° C., 5% CO2, humidified environment, in media containing 1% penicillin/streptomycin. Stable cell line generation of GL261 MGMT+ was purchased from Creative Biogene. Cell culture conditions are as follows: cell lines U87, T98G, and RKO were grown in EMEM with 10% FBS. D54, GL261, GL261 MGMT+, and U118MG cell lines were grown in DMEM with 10% FBS. HCT116 cells were grown in RMPI with 10% FBS. D341 Med cells were grown in EMEM with 20% FBS. Temozolomide (TMZ) was purchased from AK Scientific. TMZ analogues were synthesized as described below. Compounds were dissolved in DMSO (1% final concentration, Fisher Chemical) for cell culture studies.
(§2) Cell Viability Assays. Cells were harvested, seeded in a 96-well plate and allowed to adhere. After three hours, compound was added to each well in DMSO (1% final concentration). Cells were incubated for seven days (unless otherwise noted) before viability was assessed by the Alamar Blue assay. Raptinal (20 μM) was used as a dead control.
(§3) Plated 1500 c/w for GL261; 600 c/w for U87; 600 c/w for U118MG; 1500 c/w for GL261 MGMT+ Incubated ovn and added 1 μL of compound in DMSO the next day. Incubated over 7 days; added Alamar Blue to assess cell viability and used 10 μM Raptinal as dead control. Error is SEM, n=3.

[3] = system: HCT116 cells; test: Cell viability assay (Alamar Blue, 7 days), HCT116; type: cell-based; settings: Homo sapiens, HCT-116, 168 h; MGMT (−) MMR (−); 7 days; read-out: Activity, HCT116
Procedure: as §1, §2

[4] = system: GL261 MGMT+ cells; test: Cell viability assay (Alamar Blue, 7 days), GL261 MGMT+; type: cell-based; settings: Mus musculus, GL261, 168 h; MGMT (+) MMR (+); 7 days; 1500 c/w; SEM, n=3; read-out: Activity, GL261 MGMT+
Procedure: To further explore the ability of CPZ to evade MGMT-mediated resistance, MGMT-expressing T98G cells were pretreated with MGMT inhibitor O6BG followed by treatment with TMZ or CPZ. […] This cell death potentiation by TMZ upon treatment with an MGMT inhibitor was also observed in MGMT-expressing cell lines U118MG and RKO, whereas the efficacy of CPZ was again unaffected. For MGMT (−)/MMR (−) HCT116 cells, negligible potentiation of TMZ cytotoxicity was observed upon pretreatment with O6BG, confirming that loss of MMR capacity, not MGMT expression, was responsible for resistance to TMZ in HCT116 cells. Additionally, human MGMT was knocked into the MGMT-negative mouse glioma cell line, GL261, establishing the novel cell line GL261 MGMT+.
as §1, §2, §3

[5] = Solubility in IV formulations; type: physicochemical; settings: IV formulation
[6] = Maximum tolerated dose / tolerability in mice; type: in vivo; settings: for MTD at 5 days: in vivo, 66 mg/kg, once per day over 5 days
[7] = Hydrolytic stability studies; type: physicochemical; settings: PBS, pH 7.4, 37° C.; HPLC
Procedure: Hydrolytic Stability Studies. Compound (100 μM) was incubated at 37° C. in PBS at pH 7.4 (unless otherwise noted). At the indicated time point, an aliquot was collected and analyzed by HPLC. Compound peaks were integrated and compared to the integration at to calculate the percentage of prodrug remaining.

[8] = Brain tissue binding; type: in vitro ADME; settings: 10 uM, 1 h at 37 C in brain tissue homogenate
[9] = system: RKO colon cancer cell line; test: Cell viability assay (Alamar Blue, 7 days), RKO; type: cell-based; settings: 168 h; 7 days; read-out: Activity, RKO
Procedure: as §1, §2

[10] = system: GL261 cells; test: Cell viability assay (Alamar Blue, 7 days), GL261; type: cell-based; settings: Mus musculus, GL261, 168 h; MGMT (−) MMR (+); 7 days; 1500 c/w; SEM, n=3; read-out: Activity, GL261
Procedure: as §1, §2, §3

[11] = Syngeneic subcutaneous model; type: in vivo; settings: C57BL/6 mice, 1×10^6 cells; 50 mg/kg IV 1×/day over 5 days from day 5
Procedure: FIG. 10A-B. Syngeneic Subcutaneous Model (A, B). TABZ and TMZ in vivo: C57BL/6 mice were inoculated with 1×10^6 cells and treated xl/day over 5 days with either vehicle, TMZ, or TABZ (via IV, 50 mg/kg, starting on day 5).

[12] = system: U118MG cells; test: Cell viability assay (Alamar Blue, 7 days), U118MG; type: cell-based; settings: Homo sapiens, U-118-MG, 168 h, MGMT (+) MMR (+), 600 c/w, SEM, n=3
Procedure: as §1, §2, §3

[13] = Hepatic metabolism: stability in mouse liver microsomes; type: in vitro ADME
[14] = system: E. coli WP2 uvrA pKM101 strain; test: Ames test, E. coli WP2 uvrA pKM101; type: cell-based; settings: 30 μM
Procedure: (§4) Next, we measured the mutagenicity of CPZ versus TMZ. TMZ and other DNA methylating chemotherapies are known mutagens, inducing G:C→A:T mutations due to erroneous recognition of O^6-methylguanine. […] CPZ and TMZ (at 30 μM) were also assessed in the E. coli WP2 uvrA pKM101 strain, which is considered one of the more sensitive Ames tester strains available.

[15] = system: S. typhimurium TA100 strain; test: Ames test, TA100; type: cell-based; settings: 30 μM
Procedure: as §4
Ames Test. Compounds were assessed at the indicated concentrations in the TA100 tester strain using the Muta-ChromoPlate 96-well microplate version of the Ames test (Environmental Bio-Detection Products, Prod. No. 5051) according to manufacturer's instructions. In brief, TA100 S. typhimurium bacteria were grown overnight and plated with compound, growth medium, and indicator (no S9 activation) in 96 well plates. Bacteria were incubated for 5 days before the number of wells per 96 well plate containing revertant colonies were identified colorimetrically.

[16] = 6.6 mg/mL solution for 200 μL injection

CC#CCn1nnc2c(C(=O)N(C)C)ncn2c1=O [TABZ, 3-(but-2-yn-1-yl)-N,N-dimethyl-4-oxo-3,4-dihydroimidazo[5,1-d][1,2,3,5]tetrazine-8-carboxamide]
Speed of cell death induction [1]: induce cell death quickly relative to TMZ
IC50 [2]: 16 ± 2 µM
IC50 [3]: 6 ± 0.42 µM
IC50 [4]: 18 ± 1 µM
Solubility in 20/80 DMSO/PBS ([5]; 5 mg/mL solution for 100 μL injection): Soluble*
Solubility in 15/7/5/73 DMSO/NMP/T20/20% SPE-βCD [5, 16]: Soluble >25 min
Solubility in 15/10/75 DMSO/NMP/20% SPE-βCD [5, 16]: Soluble 20 min
Tolerated dose, 1×/day via IV injection [6]: 50 mg/kg
MTD at 5 days ([6]; female, C57BL/6, mouse, ip, intraperitoneal, read-out: MTD, I.P.): 66 mg/kg
MTD at 5 days ([6]; mouse, intravenous, read-out: MTD, I.V.): 66 mg/kg
Hydrolytic stability: percentage of prodrug remaining after 2 hours [7]: 31±1%
Brain tissue binding, insoluble fraction, tissue homogenizer [8]: 40 ± 4%
Brain tissue binding, insoluble fraction, ultrasonication [8]: 39 ± 4%
Brain tissue binding, soluble fraction, tissue homogenizer [8]: 64 ± 4%
Brain tissue binding, soluble fraction, ultrasonication [8]: 61 ± 4%
IC50 [9]: 9 ± 1 µM
IC50 [10]: 35 ± 2 µM
Tumor growth [11]: no exacerbation
IC50 [12]: 24 ± 5 µM
Stability (2 h, with MLM) ([13]; percentage remaining relative to t0, mouse liver microsomes, SEM, n ≥ 2): 77 ± 2%
Stability (2 h, no MLM) ([13]; percentage remaining, microsomes replaced with PBS): 87 ± 2%
Mutagenicity, E. coli WP2 uvrA pKM101 [14]: non-mutagenic
Mutagenicity, TA100 [15]: non-mutagenic

Source: patent US20250129083A1, “IMIDAZOTETRAZINE COMPOUNDS AND TREATMENT OF TMZ-RESISTANT CANCERS” (THE BOARD OF TRUSTEES OF THE UNIVERSITY OF ILLINOIS, priority 2022, published 2025)
